The results in this text go back to publication PMC11378297, “Discovery and Profiling of New Multimodal Phenylglycinamide Derivatives as Potent Antiseizure and Antinociceptive Drug Candidates” (ACS Chemical Neuroscience, 2024).

Data set [1] concerns the target T1, Cav1.2 (h) calcium ion channel (Homo sapiens, UniProt Q13936).
T1 construct: Eurofins
Briefly: Cav1.2 (h) calcium ion channel cell-based antagonist calcium flux assay. Particulars: HEK293, human recombinant HEK-293 cell, read-out: % inhibition of control agonist response. Here is the method:
The current body of literature consistently reports that both sodium (Navx) and Cav1.2 calcium ion channels can be involved in the pathogenesis of epilepsy[67]−[69] and neuropathic pain.[70]−[73] […] Therefore, we performed binding and functional studies toward sodium (site 2) and calcium Cav1.2 channels at concentrations of 10 μM for (R)-31−(R)-33.
Using previously described testing methodologies, binding/functional tests were conducted on a commercial basis at Eurofins Laboratories (Poitiers, France) and Eurofins Panlabs Discovery Services Taiwan, Ltd. (New Taipei City, Taiwan); see Table S9 for more information.
Table S9. Radioligand binding and functional assays.
Cav1.2 (L-type) (h) calcium ion channel cell-based antagonist calcium flux assay […]
Assays were performed commercially in Eurofins Laboratories (Poitiers, France) or Eurofins Panlabs Discovery Services
Taiwan, Ltd. (New Taipei City, Taiwan).
Background: Calcium flux is commonly read through the fluorescence of an indicator in the cells.

Data set [2] addresses T2, CYP2D6 (Homo sapiens, UniProt P10635).
T2 construct: purchased Promega (Madison, WI, USA)
Briefly: CYP2D6 P450-Glo assay. Format: in vitro ADME. Here is the method: The inhibition effect of enantiomers on CYP2C9 was also determined, but only at the highest concentrations (Figure 10C). In summary, the potential for DDIs of the tested enantiomers in comparison to the reference CYP inhibitors was estimated as very low.
Figure 10 Influence of (R)-31, (R)-32, and (R)-33 on: CYP3A4 activity (A) and the reference inhibitor ketoconazole (KE), CYP2D6 activity (B) and the reference inhibitor quinidine (QD), CYP2C9 activity (C) and the reference inhibitor sulfaphenazole (SE). The results are presented as means + SD. Statistical significance was evaluated by one-way ANOVA, followed by Bonferroni’s multiple comparison post hoc test (Graph Pad Prism 8.0.1 software) *p < 0.05, **p < 0.01, ***p < 0.001, ****p < 0.0001.
All assays and protocols used for the evaluation of compounds ADME-Tox parameters were described previously.[35]−[38],[95]−[98] The precoated PAMPA Plate System Gentest was utilized to estimate passive permeability (Tewksbury, MA, USA). HLMs, obtained from Sigma-Aldrich (St. Louis, MO, USA), were used for the metabolic stability assay. The most likely sites of metabolism could be identified, thanks to the MetaSite 6.0.1 program from Molecular Discovery Ltd. (Hertfordshire, UK), which was used to support the microsome experiments. The impact on recombinant human cytochromes CYP3A4, CYP2D6, and CYP2C9 was examined using CYP3A4, CYP2D6, and CYP2C9 P450-Glo kits supplied by Promega (Madison, WI, USA) in order to anticipate possible DDIs. […] The vitality of the cells was assessed using the CellTiter 96 AQueous Non-Radioactive Cell Proliferation Assay (Promega, Madison, WI, USA), following a 48 h incubation period with either the reference medication, doxorubicin (DOX), or serial dilutions of the investigated compounds. Using an EnSpire PerkinElmer microplate reader (Waltham, MA, USA), the luminescent signal and absorbances (measured at 490 nm) in DDIs and safety assays were determined. […]

In data set [3] the test system is maximal electroshock (MES) seizures, mice. Briefly: maximal electroshock (MES) seizure test. Format: in vivo. Particulars: Mus musculus, ip; for responders at 100 mg/kg: 0.5 h, read-out: MES: number of mice protected/number of mice tested; for ED50: mice, pretreatment time 0.5 h. On the technique in general: Protection in the maximal electroshock model is a classic sign of anticonvulsant action.
From the text: (§2) Both the aforementioned parameters (ED50 and TD50) enabled the calculation of protective indexes (PIs), which reflect the comparative the benefit–risk ratio of these experimental therapeutic agents.
(§3) Four mice per group were randomly assigned to each experimental group in the initial screening experiments (each mouse was used just once). Four groups, each with eight animals, received injections of different doses of the investigated substances in order to determine the ED50 or TD50 values. The PIs for the compounds investigated and reference ASMs were calculated by dividing the TD50 value, as determined in the chimney test by the respective ED50 value, as determined in the MES, scPTZ, or 6 Hz (32 mA or 44 mA) tests (PI = TD50/ED50). The PIs are a measure of the potential therapeutic window of the tested agent.
(§4) All substances were suspended in Tween 80 (1% aqueous solution) and administered i.p. as a single injection at a volume of 10 mL/kg. On each day of experimentation, fresh solutions were prepared.

Data set [4] deals with 6 Hz (32 mA) seizures, mice. Briefly: 6 Hz (32 mA) psychomotor seizure test.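 As to all read-outs here: compounds given as one i.p. dose suspended in 1% aqueous Tween 80, with the 6 Hz (32 mA) model considered to reflect focal epilepsy in humans.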 The data set is classed as in vivo. The conditions noted are these: Mus musculus, ip, mice; for responders at 100 mg/kg: 100 mg/kg i.p., 0.5 h, read-out: 6 Hz (32 mA): number of mice protected/number of mice tested (converted); for ED50: pretreatment time 0.5 h.
From the text: as §2, §3, §4
In data set [5] the test system is neuromuscular strength, mice. Briefly: grip strength test. The data set is classed as in vivo, mouse. Here is the method: Prior to the ivPTZ test, a grip strength test was conducted to evaluate the tested eutomers’ acute impact on neuromuscular strength.
(§1) 30 min prior to the testing, eutomers (R)-31, (R)-32, and (R)-33 were given i.p. after being suspended in a 1% Tween 80 solution. To reduce the number of animals utilized, neuromuscular strength measurements were made right before the seizure threshold test. The grip-strength test and the timed ivPTZ test experimental protocols were covered in full elsewhere.[87]
Figure S3. Effects of (R)-31, (R)-32, and (R)-33 on neuromuscular strength in mice. The compounds were administered i.p., 30 min before the test. Control animals received vehicle. Data are presented as mean ± SD grip strengths in millinewtons per gram of mouse body weight (mN/g); n = 10 animals. The statistical significance was evaluated using the Student’s t test (GraphPad Prism 8). […]

In data set [6] the test system is ivPTZ seizure threshold, mice. The data set is described as follows: timed ivPTZ seizure threshold test. The conditions noted are these: for effect on the threshold for the onset of any of the studied end points (ivPTZ): 30 min before test. Format: in vivo, mouse. Here is the method: The effects of (R)-31, (R)-32, and (R)-33 on the thresholds for the first myoclonic twitch, generalized clonus with loss of righting reflex, and forelimb tonus in the timed ivPTZ seizure test in mice were evaluated in the following step of pharmacological characterization. […] It should be noted that the ivPTZ seizure test is an extremely sensitive method for determining the seizure threshold in rodents.[47] In this model, (R)-31 at a dose of 50 mg/kg had no effect on the threshold for the onset of any of the studied end points. […] Compounds (R)-32 and (R)-33 were tested at a dose of 50 mg/kg only. […] (R)-33 was ineffective in the ivPTZ seizure threshold test.
Figure 2 Effect of eutomers (R)-31, (R)-32, and (R)-33 on the thresholds for the onset of (A) myoclonic twitch, (B) generalized clonus, and (C) forelimb tonic extension in the timed ivPTZ test in mice. (R)-31, (R)-32, and (R)-33 were administered, i.p., 30 min before the seizure test. Control animals received vehicle. Data are presented as means + SD in mg/kg of PTZ necessary to induce each of the three end points (n = 7–14 animals). Statistical significance was evaluated using Student’s t-test: **p < 0.01, ****p < 0.0001 vs the vehicle-treated group (GraphPad Prism 8.4.3).
as §1

T2 sequence (P10635 whole entry): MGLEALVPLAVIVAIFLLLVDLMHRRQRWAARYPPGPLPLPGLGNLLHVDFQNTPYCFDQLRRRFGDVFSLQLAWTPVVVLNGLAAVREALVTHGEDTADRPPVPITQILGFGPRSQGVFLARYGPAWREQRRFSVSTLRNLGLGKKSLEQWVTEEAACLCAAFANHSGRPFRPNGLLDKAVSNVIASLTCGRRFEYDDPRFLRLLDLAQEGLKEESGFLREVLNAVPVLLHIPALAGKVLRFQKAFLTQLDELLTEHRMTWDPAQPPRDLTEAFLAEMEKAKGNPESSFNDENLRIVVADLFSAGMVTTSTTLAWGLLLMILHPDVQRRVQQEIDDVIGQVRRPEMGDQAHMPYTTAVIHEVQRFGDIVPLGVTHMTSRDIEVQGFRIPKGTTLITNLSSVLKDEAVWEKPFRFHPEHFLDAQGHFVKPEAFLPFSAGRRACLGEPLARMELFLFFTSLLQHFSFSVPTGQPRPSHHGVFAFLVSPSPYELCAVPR
T1 sequence (Q13936 whole entry): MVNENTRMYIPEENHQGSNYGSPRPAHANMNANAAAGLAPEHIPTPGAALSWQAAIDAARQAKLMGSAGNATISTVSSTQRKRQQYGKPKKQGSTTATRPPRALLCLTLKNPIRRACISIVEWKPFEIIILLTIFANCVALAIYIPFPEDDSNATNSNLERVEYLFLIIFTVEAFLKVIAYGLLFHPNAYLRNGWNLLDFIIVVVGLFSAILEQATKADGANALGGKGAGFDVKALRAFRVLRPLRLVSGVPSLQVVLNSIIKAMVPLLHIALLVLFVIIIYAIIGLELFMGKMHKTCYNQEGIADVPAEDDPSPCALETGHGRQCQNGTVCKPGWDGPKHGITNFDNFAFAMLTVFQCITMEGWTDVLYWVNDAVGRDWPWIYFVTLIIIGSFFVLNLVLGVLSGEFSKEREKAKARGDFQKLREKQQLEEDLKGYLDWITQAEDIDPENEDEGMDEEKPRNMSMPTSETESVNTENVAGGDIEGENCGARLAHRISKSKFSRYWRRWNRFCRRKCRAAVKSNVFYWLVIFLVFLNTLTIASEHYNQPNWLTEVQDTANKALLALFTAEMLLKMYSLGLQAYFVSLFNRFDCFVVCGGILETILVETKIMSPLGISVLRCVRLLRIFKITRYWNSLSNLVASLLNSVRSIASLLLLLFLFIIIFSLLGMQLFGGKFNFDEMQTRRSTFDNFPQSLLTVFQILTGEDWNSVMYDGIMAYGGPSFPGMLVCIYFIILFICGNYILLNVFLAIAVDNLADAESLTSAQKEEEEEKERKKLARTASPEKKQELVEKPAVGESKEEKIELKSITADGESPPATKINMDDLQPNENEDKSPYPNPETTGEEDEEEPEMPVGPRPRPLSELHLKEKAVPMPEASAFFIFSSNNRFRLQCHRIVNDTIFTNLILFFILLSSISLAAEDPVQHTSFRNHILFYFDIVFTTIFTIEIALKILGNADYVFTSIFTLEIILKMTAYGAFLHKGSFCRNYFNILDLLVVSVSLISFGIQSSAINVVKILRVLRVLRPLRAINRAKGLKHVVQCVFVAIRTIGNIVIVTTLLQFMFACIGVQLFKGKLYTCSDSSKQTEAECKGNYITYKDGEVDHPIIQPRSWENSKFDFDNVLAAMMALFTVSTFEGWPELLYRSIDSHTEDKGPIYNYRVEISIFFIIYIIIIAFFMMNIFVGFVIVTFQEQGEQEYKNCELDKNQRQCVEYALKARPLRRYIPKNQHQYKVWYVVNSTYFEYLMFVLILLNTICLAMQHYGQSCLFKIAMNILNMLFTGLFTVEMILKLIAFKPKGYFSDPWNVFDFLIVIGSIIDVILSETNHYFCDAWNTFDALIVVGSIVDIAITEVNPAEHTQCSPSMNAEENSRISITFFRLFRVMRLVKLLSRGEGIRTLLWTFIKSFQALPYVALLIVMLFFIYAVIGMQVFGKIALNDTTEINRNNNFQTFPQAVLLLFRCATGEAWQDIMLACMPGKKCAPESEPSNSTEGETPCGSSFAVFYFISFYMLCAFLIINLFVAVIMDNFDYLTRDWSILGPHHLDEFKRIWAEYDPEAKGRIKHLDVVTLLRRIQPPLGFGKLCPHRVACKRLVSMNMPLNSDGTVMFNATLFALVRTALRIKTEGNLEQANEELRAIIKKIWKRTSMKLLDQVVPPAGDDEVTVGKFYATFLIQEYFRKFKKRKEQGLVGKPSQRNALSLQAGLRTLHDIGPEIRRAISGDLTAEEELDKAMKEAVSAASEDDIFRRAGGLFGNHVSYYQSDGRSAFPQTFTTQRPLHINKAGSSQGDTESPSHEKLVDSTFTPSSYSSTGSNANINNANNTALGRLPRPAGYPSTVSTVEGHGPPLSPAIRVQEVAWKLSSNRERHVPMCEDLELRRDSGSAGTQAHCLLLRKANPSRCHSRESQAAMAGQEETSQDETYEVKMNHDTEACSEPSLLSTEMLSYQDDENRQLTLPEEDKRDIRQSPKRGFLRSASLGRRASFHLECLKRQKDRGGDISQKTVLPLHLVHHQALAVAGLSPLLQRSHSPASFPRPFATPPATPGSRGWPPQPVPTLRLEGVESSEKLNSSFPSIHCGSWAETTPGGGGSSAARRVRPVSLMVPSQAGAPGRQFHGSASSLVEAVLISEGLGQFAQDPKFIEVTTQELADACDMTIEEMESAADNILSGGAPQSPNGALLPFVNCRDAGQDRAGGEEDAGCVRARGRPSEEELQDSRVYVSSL
T1 sequence (Q08289 whole entry partner): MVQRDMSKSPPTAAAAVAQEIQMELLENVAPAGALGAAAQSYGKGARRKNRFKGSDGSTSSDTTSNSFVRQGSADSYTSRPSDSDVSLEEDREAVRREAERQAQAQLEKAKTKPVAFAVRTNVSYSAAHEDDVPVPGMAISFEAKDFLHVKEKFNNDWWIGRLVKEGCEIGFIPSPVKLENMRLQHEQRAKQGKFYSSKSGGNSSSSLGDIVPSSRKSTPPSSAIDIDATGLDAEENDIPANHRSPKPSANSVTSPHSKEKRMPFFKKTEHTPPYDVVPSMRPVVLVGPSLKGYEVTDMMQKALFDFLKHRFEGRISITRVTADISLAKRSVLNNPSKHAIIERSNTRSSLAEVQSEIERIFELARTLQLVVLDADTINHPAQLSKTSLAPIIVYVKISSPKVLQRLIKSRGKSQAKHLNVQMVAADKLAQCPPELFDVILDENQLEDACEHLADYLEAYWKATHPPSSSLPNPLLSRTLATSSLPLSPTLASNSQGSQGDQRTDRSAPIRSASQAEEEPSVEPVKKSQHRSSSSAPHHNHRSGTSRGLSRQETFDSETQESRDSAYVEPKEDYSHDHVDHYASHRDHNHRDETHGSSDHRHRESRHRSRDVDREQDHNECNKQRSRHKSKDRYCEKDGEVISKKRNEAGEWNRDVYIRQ
T1 sequence (P54289 25-946 partner limits assumed): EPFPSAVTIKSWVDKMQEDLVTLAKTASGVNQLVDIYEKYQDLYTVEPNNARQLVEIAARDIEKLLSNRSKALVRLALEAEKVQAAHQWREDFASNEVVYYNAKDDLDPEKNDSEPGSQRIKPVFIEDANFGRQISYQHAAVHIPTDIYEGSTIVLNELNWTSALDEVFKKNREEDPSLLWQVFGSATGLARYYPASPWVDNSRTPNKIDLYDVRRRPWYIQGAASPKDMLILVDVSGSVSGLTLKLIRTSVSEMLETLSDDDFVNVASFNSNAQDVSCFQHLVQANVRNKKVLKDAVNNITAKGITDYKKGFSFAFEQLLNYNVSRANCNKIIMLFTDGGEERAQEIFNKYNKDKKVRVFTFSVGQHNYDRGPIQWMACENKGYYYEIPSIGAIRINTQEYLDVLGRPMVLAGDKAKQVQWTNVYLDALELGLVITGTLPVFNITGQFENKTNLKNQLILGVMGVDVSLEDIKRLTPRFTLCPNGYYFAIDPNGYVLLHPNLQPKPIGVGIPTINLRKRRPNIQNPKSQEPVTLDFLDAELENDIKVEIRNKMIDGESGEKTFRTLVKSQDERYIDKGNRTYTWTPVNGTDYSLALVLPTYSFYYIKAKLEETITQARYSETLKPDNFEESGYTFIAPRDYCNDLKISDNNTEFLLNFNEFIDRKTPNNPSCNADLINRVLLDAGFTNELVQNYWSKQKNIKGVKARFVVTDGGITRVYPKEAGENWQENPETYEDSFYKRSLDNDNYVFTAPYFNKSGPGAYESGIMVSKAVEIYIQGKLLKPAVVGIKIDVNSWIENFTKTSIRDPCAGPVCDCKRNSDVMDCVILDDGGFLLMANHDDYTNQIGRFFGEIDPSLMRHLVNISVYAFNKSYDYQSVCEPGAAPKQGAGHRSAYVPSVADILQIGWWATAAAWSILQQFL
T1 sequence (P54289 947-1103 partner limits assumed): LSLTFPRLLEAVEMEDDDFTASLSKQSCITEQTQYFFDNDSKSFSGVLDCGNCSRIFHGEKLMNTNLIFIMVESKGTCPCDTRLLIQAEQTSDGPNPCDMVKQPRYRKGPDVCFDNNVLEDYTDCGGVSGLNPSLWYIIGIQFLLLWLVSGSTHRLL

On to `CC(=O)N[C@@H](C(=O)N1CCN(c2cccc(C(F)(F)F)c2)CC1)c1ccccc1` [(R)-31, (R)-N-(2-Oxo-1-phenyl-2-(4-(3-(trifluoromethyl)phenyl)piperazin-1-yl)ethyl)acetamide], for which, in data set [1], the inhibition at 10 µM is 75%. Also, the “effect on CYP2D6 activity” value in data set [2] (1 and 10 μM) is reported as “weak activation”. Besides, the responders at 100 mg/kg in data set [3] and in data set [4] was 100% each time. Also, the median effective dose (ED50) in data set [3] turned out to be 98.4 mg/kg; in data set [4], 34.5 mg/kg. Also, the “effect on neuromuscular strength (grip strength test)” value (from here on “effect on neuromuscular strength”) in data set [5] (50 mg/kg i.p.) and in data set [5] (100 mg/kg i.p.) was “did not produce any significant effects” throughout. Also, in data set [6] (50 mg/kg i.p.), the “effect on the threshold for the onset of any of the studied end points (ivPTZ)” value is “had no effect”. Also, in data set [6] (100 mg/kg i.p., p < 0.01), the “threshold for generalized clonic seizure (ivPTZ)” value was “significantly raised the threshold”.
On to `CC(=O)N[C@@H](C(=O)N1CCN(c2cccc(OC(F)(F)F)c2)CC1)c1ccccc1` [(R)-32, (R)-N-(2-Oxo-1-phenyl-2-(4-(3-(trifluoromethoxy)phenyl)piperazin-1-yl)ethyl)acetamide], for which, in data set [1], the inhibition at 10 µM was found to be 31%. In addition, the “effect on CYP2D6 activity” value in data set [2] (1 and 10 μM) is on record as “weak activation”. In addition, the responders at 100 mg/kg in data set [3] and in data set [4] was 100% in each case. Further, the results for the ED50 in data set [3] and in data set [4] were 73.9 mg/kg and 18.8 mg/kg, respectively. In addition, the “effect on neuromuscular strength” value in data set [5] (50 mg/kg i.p.) is “did not produce any significant effects”. Also, the “threshold for the onset of forelimb tonus (ivPTZ)” value in data set [6] (50 mg/kg i.p.) is “did not affect the threshold”. For the same molecule, the “threshold for the first myoclonic twitch (ivPTZ)” value in data set [6] (50 mg/kg i.p., p < 0.0001) is listed as “significantly increased the thresholds”. Further, the “threshold for generalized clonus (ivPTZ)” value in data set [6] (50 mg/kg i.p., p < 0.01) is recorded as “significantly increased the thresholds”.
With `CC(=O)N[C@@H](C(=O)N1CCN(c2cccc(SC(F)(F)F)c2)CC1)c1ccccc1` [(R)-33, (R)-N-(2-Oxo-1-phenyl-2-(4-(3-((trifluoromethyl)thio)phenyl)piperazin-1-yl)ethyl)acetamide], the inhibition at 10 µM in data set [1] worked out at 49%. The “effect on CYP2D6 activity” value in data set [2] (25 μM) was “slightly inhibited”. Besides, in data set [3], the responders at 100 mg/kg was 100% and the ED50 is 75.7 mg/kg. Further, in data set [4], the responders at 100 mg/kg is 100% and the ED50 came out at 23.9 mg/kg. In addition, the “effect on neuromuscular strength” value in data set [5] (50 mg/kg i.p.) is “did not produce any significant effects”. For the same molecule, in data set [6] (50 mg/kg i.p.), the “effect on the threshold for the onset of any of the studied end points (ivPTZ)” value is “ineffective”.

By inhibition is commonly meant the change of the read-out against control, counted positive when it falls. What is called ED50 is the dose at which the effect has come halfway, by size or by number of responders.
